Reference: patent publication US10351522B2, “Sulfonamide derivative and pharmaceutically acceptable acid addition salt thereof” (UNIVERSITY OF TSUKUBA, priority 2015, dated 2019)
Where two headings read alike, the source gives them in different places.

Legend:
human OX1R = biological target: T1, human OX1R (Homo sapiens, UniProt O43613); test: Agonist activity against OX1R: intracellular calcium (Fura-2AM, FDSS7000) in CHOOX1R cells; assay type: cell-based; settings: relative to orexin-A as full agonist (100%); for Emax at 0.1 µM / Emax at 1 µM / Emax at 10 µM: read-out: Response (%) OX1R
T1 construct: expressed in transfected cells; host or cells: CHO (Chinese hamster ovary) cells, line CHOOX1R, co-expressing NFAT-luciferase
T1 sequence (O43613 1-425): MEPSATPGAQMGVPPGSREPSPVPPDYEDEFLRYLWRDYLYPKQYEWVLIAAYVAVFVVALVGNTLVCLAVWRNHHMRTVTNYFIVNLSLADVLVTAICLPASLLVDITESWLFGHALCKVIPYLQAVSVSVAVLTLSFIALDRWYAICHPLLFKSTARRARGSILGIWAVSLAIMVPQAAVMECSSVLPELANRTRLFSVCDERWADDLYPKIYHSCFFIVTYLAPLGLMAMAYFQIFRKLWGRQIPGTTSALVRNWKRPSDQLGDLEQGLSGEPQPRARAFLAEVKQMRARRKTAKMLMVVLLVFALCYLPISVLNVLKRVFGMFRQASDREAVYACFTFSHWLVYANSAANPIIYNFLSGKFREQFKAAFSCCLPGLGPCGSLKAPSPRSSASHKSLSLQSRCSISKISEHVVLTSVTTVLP
Method: (§1) Evaluation of Agonist Activity Against OX1R and OX2R
(§2) NAFT-luciferase gene and human OX1R gene were constitutively expressed in CHO cell, which is a cell line derived from Chinese hamster ovary to establish a cell line (CHOOX1R) and NAFT-luciferase gene and human OX2R gene were constitutively expressed in CHO cell to establish a cell line (CHOOX2R). The respective cells were seeded in a 96-well Multiplate at 10,000 cells/well and cultured in a 5% FBS (Thermo Scientific)-added DMEM medium (Sigma-Aldrich) for 48 hr. The medium was removed, an assay buffer (20 mM HEPES (Sigma-Aldrich), Hanks' balanced salt solution (Gibco), 0.1% BSA (Sigma-Aldrich), 2.5 mM probenecid acid (Wako Pure Chemical Industries, Ltd.)) (100 μL) containing 5 μM Fura-2AM (Cayman Chemical) was added, and the cells were incubated for 60 min. The buffer containing Fura-2AM was removed, and an assay buffer (75 μL) was added. An assay buffer (25 μL) containing a test compound was added thereto to start the reaction. Changes in the intracellular calcium ion concentration due to the reaction were measured by measuring the fluorescence intensity ratio by dual wavelength excitation at 340 and 380 nm, by using FDSS7000 (Hamamatsu Photonics K.K.). The test compound was dissolved in DMSO to 10 mM, and diluted with the assay buffer to a final concentration of 10^−7M to 10^−5M (final concentration of DMSO 1%).
(§3) (As used herein, Response in Table 21 to Table 27 is a value obtained by dividing the agonist activity value, when the test compound is evaluated with orexin-A as a full-agonist (maximum value of agonist activity: 100%), at 10 μM, 1.0 μM, 0.1 μM by the agonist activity value of orexin-A.)

human OX2R = biological target: T2, human OX2R (Homo sapiens, UniProt O43614); test: Agonist activity against OX2R: intracellular calcium (Fura-2AM, FDSS7000) in CHOOX2R cells; assay type: cell-based; settings: relative to orexin-A as full agonist (100%)
T2 construct: expressed in transfected cells; host or cells: CHO (Chinese hamster ovary) cells, line CHOOX2R, co-expressing NFAT-luciferase
T2 sequence (O43614 1-444): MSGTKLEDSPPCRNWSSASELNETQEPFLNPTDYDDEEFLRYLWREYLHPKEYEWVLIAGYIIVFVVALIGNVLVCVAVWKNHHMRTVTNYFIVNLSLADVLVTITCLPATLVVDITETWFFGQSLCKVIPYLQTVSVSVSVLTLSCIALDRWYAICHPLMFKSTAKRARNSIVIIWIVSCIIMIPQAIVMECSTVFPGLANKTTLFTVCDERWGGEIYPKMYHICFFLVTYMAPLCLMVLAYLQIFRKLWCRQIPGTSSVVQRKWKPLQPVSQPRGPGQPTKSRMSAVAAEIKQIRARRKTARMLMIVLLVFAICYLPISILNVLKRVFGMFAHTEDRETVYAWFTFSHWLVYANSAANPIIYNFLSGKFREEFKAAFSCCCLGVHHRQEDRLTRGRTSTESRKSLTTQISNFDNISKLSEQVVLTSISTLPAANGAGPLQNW
Method: as §1, §2, §3

Structure (SMILES) | Response (%) OX2R (human OX2R; test compound 0.1 μM) [%] | Response (%) OX2R (human OX2R; test compound 1.0 μM) [%] | Response (%) OX2R (human OX2R; test compound 10 μM) [%] | Response (%) OX2R (human OX2R; 0.1 μM test compound) [%] | Response (%) OX2R (human OX2R; 1.0 μM test compound) [%] | Response (%) OX2R (human OX2R; 10 μM test compound) [%] | Response (%) OX1R (human OX1R; 0.1 μM test compound) [%] | Response (%) OX1R (human OX1R; 1.0 μM test compound) [%] | Response (%) OX1R (human OX1R; 10 μM test compound) [%] | other results
COc1cccc(Nc2c(Nc3cccc(NS(=O)(=O)c4cc(-c5cccc(C(=O)N(C)C)c5)ccc4OC)c3)c(=O)c2=O)c1 [Example 82] | <5 | <5 | 16 | – | – | – | – | – | – | Response (%) OX1R (human OX1R; test compound 0.1 μM): <5%; Response (%) OX1R (human OX1R; test compound 1.0 μM): <5%; Response (%) OX1R (human OX1R; test compound 10 μM): 7%
COc1ccc(-c2cccc(C(=O)N(C)C)c2)cc1S(=O)(=O)Nc1cccc(Nc2c(Nc3cccc(C)c3)c(=O)c2=O)c1 [Example 80, 3′-(N-(3-((3,4-dioxo-2-(m-tolylamino)cyclobut-1-en-1-yl)amino)phenyl)sulfamoyl)-4′-methoxy-N,N-dimethyl-[1,1′-biphenyl]-3-carboxamide] | – | – | – | <5 | <5 | 23 | – | – | – | Emax at 0.1 µM (human OX1R; 0.1 μM test compound): < 5%; Emax at 1 µM (human OX1R; 1.0 μM test compound): < 5%; Emax at 10 µM (human OX1R; 10 μM test compound): < 5%
COc1ccc(-c2cccc(C(=O)N(C)C)c2)cc1S(=O)(=O)Nc1cccc(NCc2ccccc2Br)c1 [Example 28] | – | – | – | 6 | 54 | 81 | <5 | <5 | <5 | –
COc1ccc(CNc2cccc(NS(=O)(=O)c3cc(-c4cccc(C(=O)N(C)C)c4)ccc3OC)c2)cc1 [Example 22] | – | – | – | 57 | 61 | 48 | <5 | 47 | 82 | –
COc1ccc(-c2cccc(C(=O)N(C)C)c2)cc1S(=O)(=O)Nc1cccc(N(C)C)c1 [Example 96, 3′-(N-(3-(dimethylamino)phenyl)sulfamoyl)-4′-methoxy-N,N-dimethyl-[1,1′-biphenyl]-3-carboxamide] | <5 | <5 | 67 | – | – | – | – | – | – | Emax at 0.1 µM (human OX1R; test compound 0.1 μM): < 5%; Emax at 1 µM (human OX1R; test compound 1.0 μM): < 5%; Emax at 10 µM (human OX1R; test compound 10 μM): < 5%
COc1ccc(-c2cccc(C(=O)N(C)C)c2)cc1S(=O)(=O)Nc1cccc(NC(=O)/C=C/c2ccoc2)c1 [Example 14] | – | – | – | <5 | 18 | 74 | <5 | <5 | <5 | –
COc1ccc(-c2cccc(C(=O)N(C)C)c2)cc1S(=O)(=O)Nc1cccc(NC(=O)Nc2cccc(NC(=O)OC(C)(C)C)c2)c1 [Example 62] | – | – | – | 6 | 7 | 9 | 9 | 8 | 13 | –
COc1ccc(-c2cccc(C(=O)N(C)C)c2)cc1S(=O)(=O)Nc1cccc(NCc2ccc(C)cc2)c1 [Example 27] | – | – | – | 90 | 126 | 92 | <5 | 24 | 70 | –
COc1ccc(-c2cccc(C(=O)N(C)C)c2)cc1S(=O)(=O)Nc1cccc(NC(=O)Nc2cc(OC)c(OC)c(OC)c2)c1 [Example 54] | – | – | – | 91 | 71 | 61 | <5 | <5 | 10 | –
COc1cccc(NC(=O)Nc2cccc(NS(=O)(=O)c3cc(-c4cccc(C(=O)N(C)C)c4)ccc3OC)c2)c1 [Example 44] | – | – | – | 100 | 104 | 95 | <5 | <5 | 10 | –
COc1ccc(-c2cccc(C(=O)N(C)C)c2)cc1S(=O)(=O)Nc1cccc(Nc2ccc(C(=O)N(C)C)cc2)c1 [Example 34] | – | – | – | <5 | 52 | 95 | <5 | <5 | <5 | –
COc1ccc(-c2cccc(C(=O)N(C)C)c2)cc1S(=O)(=O)Nc1cccc(NC(=O)Nc2ccc([N+](=O)[O-])cc2)c1 [Example 61] | – | – | – | 24 | 105 | 99 | <5 | <5 | 7 | –
COc1ccc(-c2cccc(C(=O)N(C)C)c2)cc1S(=O)(=O)Nc1cccc(N2CCCN(c3ccccc3N(C)C)C2=O)c1 [Example 133] | 107 | 81 | 72 | – | – | – | – | – | – | Response (%) OX1R (human OX1R; test compound 0.1 μM): 25%; Response (%) OX1R (human OX1R; test compound 1.0 μM): 86%; Response (%) OX1R (human OX1R; test compound 10 μM): 84%
COc1ccc(-c2cccc(C(=O)N(C)C)c2)cc1S(=O)(=O)Nc1cccc(N2CCCN(c3cccc(N(C)C)c3)C2=O)c1 [Example 134] | 101 | 76 | 75 | – | – | – | – | – | – | Response (%) OX1R (human OX1R; test compound 0.1 μM): 9%; Response (%) OX1R (human OX1R; test compound 1.0 μM): 13%; Response (%) OX1R (human OX1R; test compound 10 μM): 84%
COc1ccc(-c2cccc(C(=O)N(C)C)c2)cc1S(=O)(=O)Nc1cccc(NC(=O)C[S+]([O-])C(c2ccccc2)c2ccccc2)c1 (stereo not drawn) [Example 13] | – | – | – | 11 | 117 | 109 | <5 | 63 | 107 | –
COc1ccc(-c2cccc(C(=O)N(C)C)c2)cc1S(=O)(=O)Nc1cccc(NC(=O)c2ccncc2)c1 [Example 4] | – | – | – | <5 | <5 | 16 | 10 | 8 | <5 | –
COc1ccc(-c2cccc(C(=O)N(C)C)c2)cc1S(=O)(=O)Nc1cccc(N2CCN(c3cccc(N(C)C)c3)C2=O)c1 [Example 130] | 64 | 99 | 106 | – | – | – | – | – | – | Response (%) OX1R (human OX1R; test compound 0.1 μM): <5%; Response (%) OX1R (human OX1R; test compound 1.0 μM): <5%; Response (%) OX1R (human OX1R; test compound 10 μM): 6%
COc1cccc(S(=O)(=O)Nc2cccc(NS(=O)(=O)c3cc(-c4cccc(C(=O)N(C)C)c4)ccc3OC)c2)c1 [Example 85, 4′-methoxy-3′-(N-(3-(3-methoxyphenylsulfonamido)phenyl)sulfamoyl)-N,N-dimethyl-[1,1′-biphenyl]-3-carboxamide] | <5 | <5 | 12 | – | – | – | – | – | – | Emax at 0.1 µM (human OX1R; test compound 0.1 μM): < 5%; Emax at 1 µM (human OX1R; test compound 1.0 μM): < 5%; Emax at 10 µM (human OX1R; test compound 10 μM): < 5%
COc1ccc(-c2cccc(C(=O)N(C)C)c2)cc1S(=O)(=O)Nc1cccc(NCc2ccccc2O)c1 [Example 26] | – | – | – | <5 | 51 | 101 | <5 | <5 | 9 | –
